Experiment [1] concerns human isoQC. Nature of the experiment: Inhibitor assay, human isoQC (Ki/IC50, competitive inhibition). The following applies: isoQC vs human QC.
Description: (§1) All measurements were performed with a NovoStar reader for microplates (BMG Labtechnologies) at 30° C. […] Excitation/emission wavelengths were 320/410 nm.
(§2) Kinetic data were evaluated using GraFit software.
Experiment [2] concerns the target human isoQC (Homo sapiens, UniProt Q9NXS2). Described as above.
Description: as §1, §2

Read-outs that look alike come from different tables or passages of the source.

For orientation: Ki means a measure of affinity in units of concentration, obtained from inhibition or displacement. `COc1ccc(NC(=S)NCCCn2ccnc2)cc1OC.Cl` [1-(3-(1H-imidazol-1-yl)propyl)-3-(3,4-dimethoxyphenyl)thiourea hydrochloride]: the “drop in Ki, human isoQC compared with human QC” value in experiment [1] was 10 fold. In addition, the Ki came out at 480 ± 30 nM in experiment [2] and 240 nM in experiment [2] (read-out: Ki-value, inhibition of human isoQC-catalyzed conversion of H-Gln-AMC into pGlu-AMC, FIG. 1, Michaelis-Menten model, linear competitive inhibition, inhibitor 0-5 μM).

Source of the values: patent US8889709B2, “Use of isoQC inhibitors in the treatment and prevention of inflammatory diseases or conditions” (Probiodrug AG, priority 2006, dated 2014).
